# Source: ChEMBL document CHEMBL2057199, “Development of novel M1 antagonist scaffolds through the continued optimization of the MLPCN probe ML012” (Bioorg Med Chem Lett, 2012)
# Calls of active or inactive are those of the source. No cut-off for these calls is given here.
# Assays:
# [1] = target: T1, Muscarinic acetylcholine receptor M1 (Homo sapiens) (UniProt P11229); test: Antagonist activity at human muscarinic M1 receptor expressed in CHO cells assessed as inhibition of acetylcholine-induced calcium mobilization at 30 uM measured after 15 mins by fluorescence analysis; assay type: functional, cell-based; design: scale not given: the % may be the effect or the level left
# T1 sequence (whole entry): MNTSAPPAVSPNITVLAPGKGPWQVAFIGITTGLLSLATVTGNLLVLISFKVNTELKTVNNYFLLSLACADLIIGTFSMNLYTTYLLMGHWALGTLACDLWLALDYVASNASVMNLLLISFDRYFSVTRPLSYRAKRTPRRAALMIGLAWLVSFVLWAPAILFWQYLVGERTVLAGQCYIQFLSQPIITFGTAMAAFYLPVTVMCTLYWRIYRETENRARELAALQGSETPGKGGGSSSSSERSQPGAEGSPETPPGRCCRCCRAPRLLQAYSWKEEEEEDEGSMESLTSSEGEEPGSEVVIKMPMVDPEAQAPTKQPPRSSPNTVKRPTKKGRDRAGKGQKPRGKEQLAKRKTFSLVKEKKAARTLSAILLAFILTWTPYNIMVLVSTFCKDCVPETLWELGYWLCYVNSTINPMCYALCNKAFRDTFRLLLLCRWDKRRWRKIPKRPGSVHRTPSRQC
# [2] = target: T2, Muscarinic acetylcholine receptor M1 (Homo sapiens, UniProt P11229); test: (§1) Antagonist activity at human muscarinic M1 receptor expressed in CHO cells assessed as inhibition of acetylcholine-induced calcium mobilization by fluorescence analysis; assay type: functional, cell-based
# T2 sequence (P11229 whole entry): T1 sequence (whole entry)
# [3] = target: T3, Muscarinic acetylcholine receptor M2 (Homo sapiens, UniProt P08172); test: Antagonist activity at human muscarinic M2 receptor assessed as inhibition of acetylcholine-induced calcium mobilization; assay type: functional
# T3 sequence (P08172 whole entry): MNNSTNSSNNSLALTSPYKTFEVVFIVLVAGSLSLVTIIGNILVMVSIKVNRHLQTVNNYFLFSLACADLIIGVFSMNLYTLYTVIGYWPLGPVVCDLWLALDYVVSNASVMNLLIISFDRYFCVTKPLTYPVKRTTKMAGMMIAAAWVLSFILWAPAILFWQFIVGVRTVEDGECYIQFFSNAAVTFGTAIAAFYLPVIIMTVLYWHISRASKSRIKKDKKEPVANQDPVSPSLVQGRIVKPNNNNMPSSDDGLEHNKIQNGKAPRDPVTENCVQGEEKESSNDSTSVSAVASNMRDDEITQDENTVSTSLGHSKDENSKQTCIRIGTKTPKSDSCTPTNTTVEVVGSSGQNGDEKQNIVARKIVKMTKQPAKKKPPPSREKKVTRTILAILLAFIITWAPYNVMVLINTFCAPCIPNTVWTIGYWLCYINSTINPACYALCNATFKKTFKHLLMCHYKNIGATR
# [4] = target: Muscarinic acetylcholine receptor M3 (Homo sapiens, UniProt P20309); test: Antagonist activity at human muscarinic M3 receptor assessed as inhibition of acetylcholine-induced calcium mobilization; assay type: functional
# Sequence of Muscarinic acetylcholine receptor M3 (P20309 whole entry): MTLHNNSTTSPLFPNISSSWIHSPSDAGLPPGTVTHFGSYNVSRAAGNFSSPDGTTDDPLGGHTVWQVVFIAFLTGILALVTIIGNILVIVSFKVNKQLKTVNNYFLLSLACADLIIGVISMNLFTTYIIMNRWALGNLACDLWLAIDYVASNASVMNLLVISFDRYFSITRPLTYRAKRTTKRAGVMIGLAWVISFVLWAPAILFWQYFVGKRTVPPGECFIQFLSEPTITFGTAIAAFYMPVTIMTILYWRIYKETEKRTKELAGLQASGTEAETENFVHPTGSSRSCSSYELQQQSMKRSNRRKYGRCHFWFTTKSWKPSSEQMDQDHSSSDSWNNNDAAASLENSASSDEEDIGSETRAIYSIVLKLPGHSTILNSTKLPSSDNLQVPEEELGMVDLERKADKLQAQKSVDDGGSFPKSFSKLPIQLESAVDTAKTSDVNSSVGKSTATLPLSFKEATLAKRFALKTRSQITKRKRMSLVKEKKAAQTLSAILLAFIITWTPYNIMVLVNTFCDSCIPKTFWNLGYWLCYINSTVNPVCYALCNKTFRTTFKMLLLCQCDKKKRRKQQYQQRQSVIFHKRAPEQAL
# [5] = target: T4, Muscarinic acetylcholine receptor M4 (Homo sapiens, UniProt P08173); test: Antagonist activity at human muscarinic M4 receptor assessed as inhibition of acetylcholine-induced calcium mobilization; assay type: functional
# T4 sequence (P08173 whole entry): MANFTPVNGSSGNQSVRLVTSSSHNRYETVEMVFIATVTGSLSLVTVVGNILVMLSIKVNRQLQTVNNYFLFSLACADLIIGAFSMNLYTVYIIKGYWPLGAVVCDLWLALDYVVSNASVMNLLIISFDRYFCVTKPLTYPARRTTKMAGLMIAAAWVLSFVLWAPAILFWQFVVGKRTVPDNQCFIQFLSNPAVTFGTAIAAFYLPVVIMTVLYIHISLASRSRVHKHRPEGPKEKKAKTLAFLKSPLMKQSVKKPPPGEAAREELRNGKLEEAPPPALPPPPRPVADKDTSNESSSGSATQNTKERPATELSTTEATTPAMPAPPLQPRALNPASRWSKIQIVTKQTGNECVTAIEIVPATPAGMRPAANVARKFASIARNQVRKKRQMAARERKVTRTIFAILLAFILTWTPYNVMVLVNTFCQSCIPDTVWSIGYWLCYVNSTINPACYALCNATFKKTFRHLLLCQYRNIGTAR
# [6] = target: T5, Muscarinic acetylcholine receptor M5 (Homo sapiens, UniProt P08912); test: Antagonist activity at human muscarinic M5 receptor assessed as inhibition of acetylcholine-induced calcium mobilization; assay type: functional
# T5 sequence (P08912 whole entry): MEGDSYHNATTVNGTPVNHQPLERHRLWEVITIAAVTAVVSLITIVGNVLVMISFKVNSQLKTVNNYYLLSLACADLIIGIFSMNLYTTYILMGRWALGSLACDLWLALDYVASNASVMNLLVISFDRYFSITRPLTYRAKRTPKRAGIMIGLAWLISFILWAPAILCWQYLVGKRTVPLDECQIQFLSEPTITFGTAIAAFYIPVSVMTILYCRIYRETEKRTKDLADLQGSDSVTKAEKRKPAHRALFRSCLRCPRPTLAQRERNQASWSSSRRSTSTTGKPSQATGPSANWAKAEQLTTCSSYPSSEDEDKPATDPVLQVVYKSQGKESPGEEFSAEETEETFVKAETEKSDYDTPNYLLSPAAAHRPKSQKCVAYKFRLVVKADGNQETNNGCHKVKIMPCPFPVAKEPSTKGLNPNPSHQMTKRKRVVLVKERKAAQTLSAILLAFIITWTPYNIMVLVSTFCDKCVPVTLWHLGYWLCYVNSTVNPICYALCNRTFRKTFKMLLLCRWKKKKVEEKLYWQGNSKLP
# [7] = target: T1, Muscarinic acetylcholine receptor M1 (Homo sapiens); test: Antagonist activity at human muscarinic M1 receptor assessed as rightward shift in acetylcholine concentration response curve; assay type: functional
# [8] = target: T1, Muscarinic acetylcholine receptor M1 (Homo sapiens); test: Displacement of [3H]NMS from human muscarinic M1 receptor
# [9] = target: T1, Muscarinic acetylcholine receptor M1 (Homo sapiens); test: as §1; assay type: functional, cell-based
SMILES,Activity [1],IC50 ([2]; read-out: IC50),further results
O=C(C1CN(S(=O)(=O)c2cccc3cnccc23)C1)N1CCN(c2ccncn2)CC1,7.3%,,
Cc1cnccc1N1CCN(C(=O)C2CN(S(=O)(=O)c3cccc4cnccc34)C2)CC1,7.3%,510 nM,
O=C(C1CN(S(=O)(=O)c2ccc(Cl)cn2)C1)N1CCN(c2ccncc2)CC1,38.5%,> 10000 nM,
O=C(C1CN(S(=O)(=O)c2cccc3cnccc23)C1)N1CCN(c2ccnc(Cl)c2)CC1,3.6%,180 nM,
Cc1cc(S(=O)(=O)N2CC(C(=O)N3CCN(c4ccncc4)CC3)C2)cnc1Cl,4.9%,,
O=C(C1CN(S(=O)(=O)c2cccc3ncccc23)C1)N1CC2CN(c3ccncc3)CC2C1 (stereo not drawn),25.8%,> 10000 nM,
Cc1nc(C(F)(F)F)c(S(=O)(=O)N2CC(C(=O)N3CCN(c4ccncc4)CC3)C2)s1,12.7%,2500 nM,
O=C(C1CCN(S(=O)(=O)c2cccc3nsnc23)CC1)N1CCN(c2ccncc2)CC1,,,IC50 ([2]; cho): Not Active
O=C(C1CN(S(=O)(=O)c2cccc(Cl)c2)C1)N1CCN(c2ccncc2)CC1,20.7%,,
O=C(C1CN(S(=O)(=O)c2ccc3occc3c2)C1)N1CCN(c2ccncc2)CC1,10.5%,2300 nM,
O=C(C1CN(S(=O)(=O)c2cccc3nonc23)C1)N1CCN(c2ccncc2)CC1,,430 nM,
Cc1cc(N2CCN(C(=O)C3CN(S(=O)(=O)c4cccc5cnccc45)C3)CC2)cc(C)n1,4.7%,690 nM,
O=C(C1CN(S(=O)(=O)c2cccnc2Cl)C1)N1CCN(c2ccncc2)CC1,8.2%,1300 nM,
O=C(C1CN(S(=O)(=O)c2ccc3cn[nH]c3c2)C1)N1CCN(c2ccncc2)CC1,33%,> 10000 nM,
O=C(C1CN(S(=O)(=O)c2cccc3c(Cl)nccc23)C1)N1CCN(c2ccncc2)CC1,3.5%,740 nM,
O=C(C1CN(S(=O)(=O)c2ccc(C(F)(F)F)nc2)C1)N1CCN(c2ccncc2)CC1,40.7%,> 10000 nM,
O=C(C1CN(S(=O)(=O)c2cccc(F)c2)C1)N1CC2CN(c3ccncc3)CC2C1 (stereo not drawn),18.9%,3200 nM,
O=C(C1CN(S(=O)(=O)c2cccc3cnc(Cl)cc23)C1)N1CCN(c2ccncc2)CC1,6%,1600 nM,
O=C(C1CN(S(=O)(=O)c2ccc(Cl)nc2)C1)N1CCN(c2ccncc2)CC1,5.7%,500 nM,
O=C(C1CN(S(=O)(=O)c2cccc3nsnc23)C1)N1CC2CN(c3ccncc3)CC2C1 (stereo not drawn),16.2%,,
Cn1cc(S(=O)(=O)N2CC(C(=O)N3CCN(c4ccncc4)CC3)C2)cn1,12.3%,1200 nM,
O=C(C1CN(S(=O)(=O)c2cccc(Cl)c2F)C1)N1CCN(c2ccncc2)CC1,11.4%,,

# The next lines start with results.
Activity [1],IC50 ([2]; read-out: IC50),SMILES,further results
8%,,O=C(C1CN(S(=O)(=O)c2ccc3ncccc3c2)C1)N1CCN(c2ccncc2)CC1,
3.1%,110 nM,Cc1cc(N2CCN(C(=O)C3CN(S(=O)(=O)c4cccc5cnccc45)C3)CC2)ccn1,
9.9%,1500 nM,O=C(C1CN(S(=O)(=O)c2cccnc2Cl)C1)N1CC2CN(c3ccncc3)CC2C1 (stereo not drawn),
6.6%,,O=C(C1CN(S(=O)(=O)c2cccc(Cl)c2Cl)C1)N1CC2CN(c3ccncc3)CC2C1 (stereo not drawn),
3.6%,130 nM,O=C(C1CN(S(=O)(=O)c2ccc3c(c2)CCO3)C1)N1CCN(c2ccncc2)CC1,
2.7%,,O=C(C1CN(S(=O)(=O)c2cccc3cnccc23)C1)N1CCN(c2ccncc2)CC1,IC50 [3]: > 10000 nM; IC50 [4]: > 10000 nM; IC50 [5]: > 10000 nM; IC50 [6]: > 10000 nM
41.3%,> 10000 nM,Cc1ccnc(S(=O)(=O)N2CC(C(=O)N3CCN(c4ccncc4)CC3)C2)c1,
14.8%,,Cc1cc2c(S(=O)(=O)N3CC(C(=O)N4CC5CN(c6ccncc6)CC5C4)C3)cccc2cn1 (stereo not drawn),
4.9%,370 nM,O=C(C1CN(S(=O)(=O)c2cccnc2)C1)N1CCN(c2ccncc2)CC1,
13.5%,1900 nM,O=C(C1CN(S(=O)(=O)c2cccc3c2OCO3)C1)N1CC2CN(c3ccncc3)CC2C1 (stereo not drawn),
15.3%,2300 nM,Cc1noc(C)c1S(=O)(=O)N1CC(C(=O)N2CCN(c3ccncc3)CC2)C1,
8.4%,2500 nM,O=C(C1CN(S(=O)(=O)c2ccccc2OC(F)(F)F)C1)N1CCN(c2ccncc2)CC1,
3.5%,840 nM,O=C(C1CN(S(=O)(=O)c2cccc(Cl)c2Cl)C1)N1CCN(c2ccncc2)CC1,
10.1%,2200 nM,O=C(C1CN(S(=O)(=O)c2cccc3nsnc23)C1)N1CCN(c2ccncc2)CC1,IC50 ([2]; read-out: pIC50 (converted)): 2090 nM
5.3%,,O=C(C1CN(S(=O)(=O)c2ccc3c(c2)OCO3)C1)N1CCN(c2ccncc2)CC1,Activity [7]: Active; Activity [8]: Active; inhibition [9]: Dose-dependent effect
47.1%,> 10000 nM,O=C(C1CCN(S(=O)(=O)c2cccc3nsnc23)C1)N1CCN(c2ccncc2)CC1 (racemic),
8.8%,,O=C(C1CN(S(=O)(=O)c2cccc3ncccc23)C1)N1CCN(c2ccncc2)CC1,
9.8%,,Cc1cc2c(S(=O)(=O)N3CC(C(=O)N4CCN(c5ccncc5)CC4)C3)cccc2cn1,
33.4%,> 10000 nM,O=C(C1CCCN(S(=O)(=O)c2cccc3nsnc23)C1)N1CCN(c2ccncc2)CC1 (racemic),
12.7%,,O=C(C1CN(S(=O)(=O)c2cccc3c(Cl)nc(Cl)cc23)C1)N1CCN(c2ccncc2)CC1,
9.5%,1700 nM,O=C(C1CN(S(=O)(=O)c2cccc(F)c2)C1)N1CCN(c2ccncc2)CC1,
12.6%,2000 nM,O=C(C1CN(S(=O)(=O)c2cccc3nonc23)C1)N1CC2CN(c3ccncc3)CC2C1 (stereo not drawn),
20.6%,> 10000 nM,COc1ccc(S(=O)(=O)N2CC(C(=O)N3CCN(c4ccncc4)CC3)C2)cn1,
